Source: patent US7879872B2, “Compositions comprising multiple bioactive agents, and methods of using the same” (Affinium Pharmaceuticals, Inc., priority 2003, dated 2011)
Where “and” joins values, the source holds several entries; their conditions need not be identical. Equal values may be shown once.

Assays:
E. faecalis A6221420 = assay: Combination Time-kill kinetics; type: cell-based; conditions: alone or with Meropenem 4 × MIC (16 ug/ml)
Method: (§1) As used herein, “synergy” refers to the in vitro effect of administration of a combination of an antibacterial agent such as a Fab I inhibiter, and antiinfective agent such that (1) the fractional inhibitory concentration (FIC) is less than or equal to 0.5 in an FIC assay described herein; or (2) there is at least a 100-fold (2 log10) increase in killing at 24 hours for the combination as compared with the bioactive agent alone in a time kill curve assay as described herein. An FIC of ≦0.5 is evidence of synergy. An additive response has an FIC value of >0.5 and less than or equal to 1, while an indifferent response has an FIC value of >1 and ≦2. An additive effect may still indicate that the combination of bioactive agent and cationic peptide are therapeutically useful.

S. pneumoniae 22257 = assay: Combination Time-kill kinetics; type: cell-based; conditions: alone or with Azithromycin 4 × MIC (0.12 ug/ml) or Cefuroxime 4 × MIC (8 ug/ml)
Method: as §1

S. pneumoniae 22425 = assay: Combination Time-kill kinetics; type: cell-based; conditions: alone or with Gatifloxacin 4 × MIC (2 ug/ml)
Method: as §1

S. aureus 43300 = assay: checkerboard combination study (FIC index); type: cell-based, Staphylococcus aureus; design: key: FIC index = average of FICA+FICB (MIC combo/MIC alone); conditions: S. aureus 43300 (MRSA)
Method: (§2) The combination experiments were performed and the results were interpreted using the checkerboard method as described in Eliopoulous, G. M., and R. C. Moellering, 1996, Antimicrobial combinations, p. 330-396, In V. Lorian (ed.), Antibiotics in laboratory medicine, 4th ed., The Williams & Wilkins Co., Baltimore, Md., in 96-well microtiter plates. Compound A was serially diluted along the x-axis of the test plate to a final volume of 50 μl, and compound B was serially diluted in a separate transfer plate. Dilutions in both plates were made in CAMHB (cation-adjusted Mueller Hinton broth) for Staphylococci and in CAMHB+5% sheep blood for Streptococci. Aliquots (50 μl) of Compound B were transferred to the test plate along the y-axis thereby achieving a checkerboard matrix of antimicrobial combinations (100 μl total volume) as in FIG. 4. The first column and last row (shaded in FIG. 4) contained only compound B or compound A, respectively. Plates were then inoculated with 10 μl of the test microorganism and MICs were determined according to NCCLS guidelines (see National Committee for Clinical Laboratory Standards, 2000, Methods for Dilution Antimicrobial Susceptibility Tests for Bacteria That Grow Aerobically—Fifth Edition, Approved Standard M7-A5, NCCLS, Wayne, Pa., USA.)
(§3) Data analysis was performed as follows and according to Eliopoulous, G. M., and R. C. Moellering, 1996, Antimicrobial combinations, p. 330-396, In V. Lorian (ed.), Antibiotics in laboratory medicine, 4th ed., The Williams & Wilkins Co., Baltimore, Md. First individual FIC values for each combination in a plate were calculated: FIC(Fractional Inhibitory Concentration)=FICA+FICB • FICA=MICA+B/MICA i.e. the MIC of combination of compound A+compound B divided by the MIC of compound A alone. • FICB=MICB+A/MICB i.e. the MIC of combination of compound B+compound A divided by the MIC of compound B alone.
(§4) FIC values were calculated only for combinations that enabled determination of a true MIC (e.g. not > or <=values). FIC indexes were then calculated as the average of individual FIC values for each combination plate.

S. aureus 29213 = assay: checkerboard combination study (FIC index); type: cell-based, Staphylococcus aureus; design: key: FIC index = average of FICA+FICB (MIC combo/MIC alone)
Method: as §2, §3, §4

In the case of `Cc1c(CN(C)C(=O)/C=C/c2cnc3c(c2)CCC(=O)N3)oc2ccccc12` [Compound G, (E)-N-methyl-N-(3-methylbenzofuran-2-ylmethyl)-3-(7-oxo-5,6,7,8-tetrahydro-1,8-naphthyridin-3-yl)acrylamide], the “logCFU/ml at Time (hr): 0” value (E. faecalis A6221420; Compound G 0.03 ug/ml) is reported as 5.10 logCFU/ml, the “logCFU/ml at Time (hr): 2” value (E. faecalis A6221420; Compound G 0.03 ug/ml) is reported as 6.03 logCFU/ml and the “logCFU/ml at Time (hr): 4” value (E. faecalis A6221420; Compound G 0.03 ug/ml) is reported as 6.42 logCFU/ml. For the same compound, the “logCFU/ml at Time (hr): 8” value (E. faecalis A6221420; Compound G 0.03 ug/ml) was 9.88 logCFU/ml, the “logCFU/ml at Time (hr): 24” value (E. faecalis A6221420; Compound G 0.03 ug/ml) was 9.91 logCFU/ml and the “ΔlogCFU/ml (24-0 hr)” value (E. faecalis A6221420; Compound G 0.03 ug/ml) was 4.81 logCFU/ml. For the same compound, the “logCFU/ml at Time (hr): 0” value (E. faecalis A6221420; Compound G 1 ug/ml) was 5.12 logCFU/ml, the “logCFU/ml at Time (hr): 2” value (E. faecalis A6221420; Compound G 1 ug/ml) was 5.93 logCFU/ml and the “logCFU/ml at Time (hr): 4” value (E. faecalis A6221420; Compound G 1 ug/ml) was 6.53 logCFU/ml. The “logCFU/ml at Time (hr): 8” value (E. faecalis A6221420; Compound G 1 ug/ml) was 9.76 logCFU/ml, the “logCFU/ml at Time (hr): 24” value (E. faecalis A6221420; Compound G 1 ug/ml) was 9.91 logCFU/ml and the “ΔlogCFU/ml (24-0 hr)” value (E. faecalis A6221420; Compound G 1 ug/ml) was 4.79 logCFU/ml. The “logCFU/ml at Time (hr): 0” value (S. pneumoniae 22257; Compound G 0.03 ug/ml) was 6.41 logCFU/ml and 6.20 logCFU/ml, the “logCFU/ml at Time (hr): 3” value (S. pneumoniae 22257; Compound G 0.03 ug/ml) was 8.31 logCFU/ml and 8.15 logCFU/ml and the “logCFU/ml at Time (hr): 6” value (S. pneumoniae 22257; Compound G 0.03 ug/ml) was 9.23 logCFU/ml and 9.35 logCFU/ml. For the same compound, the “logCFU/ml at Time (hr): 8” value (S. pneumoniae 22257; Compound G 0.03 ug/ml) was 9.32 logCFU/ml, the “logCFU/ml at Time (hr): 24” value (S. pneumoniae 22257; Compound G 0.03 ug/ml) was 9.68 logCFU/ml and 9.65 logCFU/ml and the “ΔlogCFU/ml (24-0 hr)” value (S. pneumoniae 22257; Compound G 0.03 ug/ml) was 3.26 logCFU/ml and 3.45 logCFU/ml. For the same compound, the “logCFU/ml at Time (hr): 0” value (S. pneumoniae 22257; Compound G 1 ug/ml) was 6.43 logCFU/ml and 6.30 logCFU/ml, the “logCFU/ml at Time (hr): 3” value (S. pneumoniae 22257; Compound G 1 ug/ml) was 8.30 logCFU/ml and 8.17 logCFU/ml and the “logCFU/ml at Time (hr): 6” value (S. pneumoniae 22257; Compound G 1 ug/ml) was 9.33 logCFU/ml and 9.20 logCFU/ml. The “logCFU/ml at Time (hr): 8” value (S. pneumoniae 22257; Compound G 1 ug/ml) was 9.47 logCFU/ml and 9.41 logCFU/ml, the “logCFU/ml at Time (hr): 24” value (S. pneumoniae 22257; Compound G 1 ug/ml) was 9.68 logCFU/ml and 9.71 logCFU/ml and the “ΔlogCFU/ml (24-0 hr)” value (S. pneumoniae 22257; Compound G 1 ug/ml) was 3.25 logCFU/ml and 3.40 logCFU/ml. The “logCFU/ml at Time (hr): 0” value (S. pneumoniae 22425; Compound G 0.03 ug/ml) was 5.20 logCFU/ml, the “logCFU/ml at Time (hr): 2” value (S. pneumoniae 22425; Compound G 0.03 ug/ml) was 5.63 logCFU/ml and the “logCFU/ml at Time (hr): 6” value (S. pneumoniae 22425; Compound G 0.03 ug/ml) was 7.25 logCFU/ml. For the same compound, the “logCFU/ml at Time (hr): 24” value (S. pneumoniae 22425; Compound G 0.03 ug/ml) was 7.61 logCFU/ml, the “ΔlogCFU/ml (24-0 hr)” value (S. pneumoniae 22425; Compound G 0.03 ug/ml) was 2.41 logCFU/ml and the “logCFU/ml at Time (hr): 0” value (S. pneumoniae 22425; Compound G 1 ug/ml) was 5.12 logCFU/ml. For the same compound, the “logCFU/ml at Time (hr): 2” value (S. pneumoniae 22425; Compound G 1 ug/ml) was 5.61 logCFU/ml, the “logCFU/ml at Time (hr): 6” value (S. pneumoniae 22425; Compound G 1 ug/ml) was 7.18 logCFU/ml and the “logCFU/ml at Time (hr): 24” value (S. pneumoniae 22425; Compound G 1 ug/ml) was 7.58 logCFU/ml. For the same compound, the “ΔlogCFU/ml (24-0 hr)” value (S. pneumoniae 22425; Compound G 1 ug/ml) was 2.45 logCFU/ml, the “FIC Index” value (S. aureus 43300; with Cefuroxime) was 0.5 and the “FIC Index” value (S. aureus 43300; with Cloxacillin) was 0.75. For the same compound, the “FIC Index” value (S. aureus 43300; with Gentamcin) was 0.4, the “FIC Index” value (S. aureus 43300; with Levofloxacin) was 2 and the “FIC Index” value (S. aureus 43300; with Linezolid) was 0.5. The “FIC Index” value (S. aureus 43300; with Nafcillin) was 0.7, the “FIC Index” value (S. aureus 43300; with Rifampicin) was 0.75 and the “FIC Index” value (S. aureus 43300; with Tetracycline) was 1. The “FIC Index” value (S. aureus 43300; with Vancomycin) was 0.75, the “FIC Index” value (S. aureus 29213; with Cefuroxime) was 0.8 and the “FIC Index” value (S. aureus 29213; with Cloxacillin) was 2. The “FIC Index” value (S. aureus 29213; with Erythromycin) was 2, the “FIC Index” value (S. aureus 29213; with Gentamcin) was 0.3 and the “FIC Index” value (S. aureus 29213; with Levofloxacin) was 1. For the same compound, the “FIC Index” value (S. aureus 29213; with Linezolid) was 0.5, the “FIC Index” value (S. aureus 29213; with Nafcillin) was 0.8 and the “FIC Index” value (S. aureus 29213; with Rifampicin) was 0.8. The “FIC Index” value (S. aureus 29213; with Tetracycline) was 2 and the “FIC Index” value (S. aureus 29213; with Vancomycin) was 1.
